# Literature values, collected in US6921754B2, “Compositions containing folic acid and reduced folate” (BASF Aktiengesellschaft, priority 2000, dated 2005).
# System: neural tube defects (NTDs) in neonates
# Conditions: supplementation of pregnant women with 0.4 to 4 mg of folic acid/day (Hages et al., 1996)
compound,measurement,value
"Nc1nc2ncc(CNc3ccc(C(=O)N[C@@H](CCC(=O)O)C(=O)O)cc3)nc2c(=O)[nH]1 [folic acid, N-[4-(2-Amino-3,4-dihydro-4-oxo-6-pteridinylmethylamino)-benzoyl]-L-glutamic acid]",decrease in the frequency of abnormalities in newborn infants,50-80%
